Patent EP3572411A1, “THIAZOLE DERIVATIVES AS METALLO-BETA-LACTAMASE INHIBITORS” (Antabio SAS, priority 2018, dated 2019)
Like-named read-outs stand apart in the source and are kept apart here.

Legend:
IMP-1 = biological target: T1, IMP-1 (Serratia marcescens, UniProt P52699); test: In vitro enzyme inhibition assay (imipenem hydrolysis, UV 299 nm); assay type: biochemical
T1 construct: VIM-1; VIM-2
Method: (§1) In vitro enzyme inhibition assays: Enzyme inhibition assays are performed using purified MBL enzymes (NDM-1; VIM-1; VIM-2; IMP-1) in 10mM HEPES buffer pH 7.5 in 96-well microtiter plates. Imipenem (300µM) is used as substrates and its hydrolysis is followed at UV 299 nm during 10mn every 30 seconds using a Perkin Elmer Envision UV fluorescence plate reader. Hydrolysis rate data in presence of a range of inhibitors are analysed using Dotmatics database software and calculated IC50 values are converted to Ki values using the Cheng-Prusoff equation. Ki = IC50 / (1+([S]/Km) and where the Km values for […] are 70 µM, 1.5 µM, 9 µM and 25 µM respectively. Compound dilution is performed in DMSO. Mean Ki values from multiple experiments are presented. Results are shown in Table 1.

NDM-1 = biological target: T2, NDM-1 (Klebsiella pneumoniae, UniProt C7C422); test: as above; assay type: biochemical
T2 construct: VIM-1; VIM-2
Method: as §1

VIM-1 = biological target: T3, VIM-1 (Pseudomonas aeruginosa, UniProt A0A0F7KYQ8); test: as above; assay type: biochemical
T3 construct: VIM-1; VIM-2; IMP-1)
Method: as §1

VIM-2 = biological target: T4, VIM-2 (Escherichia coli, UniProt Q5U7L7); test: as above; assay type: biochemical
T4 construct: VIM-1; VIM-2
Method: as §1

[1] = tested on: NTBC018 (C. freundii strain expressing VIM-2); test: Antimicrobial susceptibility testing (broth micro-dilution, Meropenem potentiation); assay type: cell-based; details: MIC of Meropenem with compound at constant 8 µg/mL; CAMHB, 18-20 hours, 37°C
Method: (§2) Antimicrobial susceptibility testing: The operation is carried out using the 'broth micro-dilution method' according to the protocols M07-A8 established by the Clinical Laboratory Standards Institute (CLSI). Serial dilutions of the β-lactam antibiotic (Meropenem) are prepared in 96-well plates in cation-adjusted Mueller-Hinton broth (CAMHB); the concentration range is defined from 0.03 mg/L to 512 mg/L. The compounds are added at a constant concentration of 8 µg/mL. A bacterial inoculum of each strain (clinical isolates) is adjusted to a 0.5 McFarland turbidity standard in physiologic serum (0.9 % NaCl), then diluted 1:100 in CAMHB and added to each well to give a final bacterial cell number of 5x10^5 CFU/well. After incubation for 18-20 hours in a heating chamber at 37°C, the growth inhibition is evaluated by the absence of any bacterial development.
(§3) The compounds of Table 2 are added at a constant concentration of 8 µg/mL. The clinical strains used in these potentiation experiments are NTBC020 (E. coli strain expressing NDM-1, TEM-1 and CTX-M-15); NTBC035-2 (K. pneumoniae strain expressing NDM-1, CMY-4 and SHV-11); NTBC104-1 (K. pneumoniae strain expressing NDM-1 and SHV-11); NTBC123 (K. pneumoniae strain expressing NDM-1); NTBC018 (C. freundii strain expressing VIM-2); NTBC024 (K. pneumoniae strain expressing VIM-19, TEM-1 and CTX-M-3); NTBC042 (E. coli strain expressing VIM-1, TEM-1 , CTX-M-15, SHV-12); NTBC055 (E. Coli strain expressing VIM-1); NTBC062 (K. pneumoniae strain expressing IMP-1 and TEM-1) and NTBC039 (K. oxytoca strain expressing IMP-28). • For NDM-1 the Ki values of < 0.05 µM are designated (A); Ki values of 0.05 - 0.2 µM are designated (B); Ki values of 0.2 - 0.4 µM are designated (C). • For VIM-1 the Ki values of < 0.2 µM are designated (A); Ki values of 0.2 - 0.5 µM are designated (B); Ki values of 0.5 - 0.8 µM are designated (C). • For VIM-2 the Ki values of < 0.02 µM are designated (A); Ki values of 0.02 - 0.05 µM are designated (B); Ki values of 0.05 - 0.2 µM are designated (C). • For IMP-1 the Ki values of < 0.5 µM are designated (A); Ki values of 0.5 - 1 µM are designated (B); Ki values of 1 - 8 µM are designated (C). • MIC values of < 1 µg/mL are designated (A); MIC values of 1 - 2 µg/mL are designated (B); • MIC values of 2 - 128 µg/mL are designated (C). Table 1. Ki results

[2] = tested on: NTBC020 (E. coli strain expressing NDM-1, TEM-1 and CTX-M-15); test: as above; assay type: cell-based; details: MIC of Meropenem with compound at constant 8 µg/mL; CAMHB, 18-20 hours, 37°C
Method: as §2, §3

[3] = tested on: NTBC024 (K. pneumoniae strain expressing VIM-19, TEM-1 and CTX-M-3); test: as above; assay type: cell-based; details: MIC of Meropenem with compound at constant 8 µg/mL; CAMHB, 18-20 hours, 37°C
Method: as §2, §3

[4] = tested on: NTBC035-2 (K. pneumoniae strain expressing NDM-1, CMY-4 and SHV-11); test: as above; assay type: cell-based; details: MIC of Meropenem with compound at constant 8 µg/mL; CAMHB, 18-20 hours, 37°C
Method: as §2, §3

[5] = tested on: NTBC039 (K. oxytoca strain expressing IMP-28); test: as above; assay type: cell-based; details: MIC of Meropenem with compound at constant 8 µg/mL; CAMHB, 18-20 hours, 37°C
Method: as §2, §3

[6] = tested on: NTBC042 (E. coli strain expressing VIM-1, TEM-1 , CTX-M-15, SHV-12); test: as above; assay type: cell-based; details: MIC of Meropenem with compound at constant 8 µg/mL; CAMHB, 18-20 hours, 37°C
Method: as §2, §3

[7] = tested on: NTBC055 (E. Coli strain expressing VIM-1); test: as above; assay type: cell-based; details: MIC of Meropenem with compound at constant 8 µg/mL; CAMHB, 18-20 hours, 37°C
Method: as §2, §3

[8] = tested on: NTBC062 (K. pneumoniae strain expressing IMP-1 and TEM-1); test: as above; assay type: cell-based; details: MIC of Meropenem with compound at constant 8 µg/mL; CAMHB, 18-20 hours, 37°C
Method: as §2, §3

[9] = tested on: NTBC104-1 (K. pneumoniae strain expressing NDM-1 and SHV-11); test: as above; assay type: cell-based; details: MIC of Meropenem with compound at constant 8 µg/mL; CAMHB, 18-20 hours, 37°C
Method: as §2, §3

[10] = tested on: NTBC123 (K. pneumoniae strain expressing NDM-1); test: as above; assay type: cell-based; details: MIC of Meropenem with compound at constant 8 µg/mL; CAMHB, 18-20 hours, 37°C
Method: as §2, §3

[11] = purified enzyme, 10mM HEPES pH 7.5, Imipenem 300µM; mean Ki from IC50 by Cheng-Prusoff; read-out: Ki (µM) IMP-1
[12] = purified enzyme, 10mM HEPES pH 7.5, Imipenem 300µM; mean Ki from IC50 by Cheng-Prusoff; read-out: Ki (µM) NDM-1
[13] = purified enzyme, 10mM HEPES pH 7.5, Imipenem 300µM; mean Ki from IC50 by Cheng-Prusoff; read-out: Ki (µM) VIM-1
[14] = purified enzyme, 10mM HEPES pH 7.5, Imipenem 300µM; mean Ki from IC50 by Cheng-Prusoff; read-out: Ki (µM) VIM-2
[15] = read-out: Ki (µM) IMP-1; purified enzyme, 10mM HEPES pH 7.5, Imipenem 300µM; mean Ki from IC50 by Cheng-Prusoff
[16] = read-out: Ki (µM) NDM-1; purified enzyme, 10mM HEPES pH 7.5, Imipenem 300µM; mean Ki from IC50 by Cheng-Prusoff
[17] = read-out: Ki (µM) VIM-1; purified enzyme, 10mM HEPES pH 7.5, Imipenem 300µM; mean Ki from IC50 by Cheng-Prusoff
[18] = read-out: Ki (µM) VIM-2; purified enzyme, 10mM HEPES pH 7.5, Imipenem 300µM; mean Ki from IC50 by Cheng-Prusoff

T1 sequence (P52699 19-246, looked up, species assumed): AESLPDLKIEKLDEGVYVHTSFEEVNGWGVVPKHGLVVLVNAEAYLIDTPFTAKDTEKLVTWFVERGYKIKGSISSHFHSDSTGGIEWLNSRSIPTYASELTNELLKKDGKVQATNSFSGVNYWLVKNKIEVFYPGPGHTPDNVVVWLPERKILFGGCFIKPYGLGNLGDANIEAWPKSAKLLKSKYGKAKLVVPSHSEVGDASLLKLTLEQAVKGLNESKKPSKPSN
T2 sequence (C7C422 29-270, looked up): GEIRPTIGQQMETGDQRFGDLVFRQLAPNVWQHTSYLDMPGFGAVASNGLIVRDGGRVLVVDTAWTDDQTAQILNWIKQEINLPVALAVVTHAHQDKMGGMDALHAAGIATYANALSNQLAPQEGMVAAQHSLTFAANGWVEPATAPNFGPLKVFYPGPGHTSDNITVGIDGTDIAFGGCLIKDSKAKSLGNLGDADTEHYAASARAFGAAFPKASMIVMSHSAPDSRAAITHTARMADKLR

Compound | Ki (IMP-1; [11]) [µM] | Ki (NDM-1; [12]) [µM] | Ki (VIM-1; [13]) [µM] | Ki (VIM-2; [14]) [µM] | MIC Strain NTBC018 [1] | MIC Strain NTBC020 [2] | MIC Strain NTBC024 [3] | MIC Strain NTBC035-2 [4] | MIC Strain NTBC039 [5] | MIC Strain NTBC042 [6] | MIC Strain NTBC055 [7] | MIC Strain NTBC062 [8] | MIC Strain NTBC104-1 [9] | MIC Strain NTBC123 [10] | Ki (IMP-1; [15]) [µM] | Ki (NDM-1; [16]) [µM] | Ki (VIM-1; [17]) [µM] | Ki (VIM-2; [18]) [µM]
3-(3-carbamimidamidopropyl)-1-[({4-[(4-carboxy-1,3-thiazol-5-yl)sulfamoyl]-2-fluorophenyl}carbamoyl)methyl]-1H-imidazol-3-ium [Example 17] | 1 to 8 | < 0.05 | < 0.2 | < 0.02 | (A) (MIC values of < 1 µg/mL are designated (A)) | (C) (MIC values of 2 - 128 µg/mL are designated (C)) | (B) (MIC values of 1 - 2 µg/mL are designated (B)) | (B) (MIC values of 1 - 2 µg/mL are designated (B)) | (C) (MIC values of 2 - 128 µg/mL are designated (C)) | d(B) (MIC values of 1 - 2 µg/mL are designated (B)) | (B) (MIC values of 1 - 2 µg/mL are designated (B)) | (B) (MIC values of 1 - 2 µg/mL are designated (B)) | (C) (MIC values of 2 - 128 µg/mL are designated (C)) | (C) (MIC values of 2 - 128 µg/mL are designated (C)) | – | – | – | –
3-[({4-[(4-carboxy-1,3-thiazol-5-yl)sulfamoyl]-2-fluorophenyl}carbamoyl)methyl]-1-[2-(trimethylammonio)ethyl]imidazol-1-ium [Example 21] | 1 to 8 | < 0.05 | < 0.2 | < 0.02 | (B) (MIC values of 1 - 2 µg/mL are designated (B)) | (C) (MIC values of 2 - 128 µg/mL are designated (C)) | (C) (MIC values of 2 - 128 µg/mL are designated (C)) | (C) (MIC values of 2 - 128 µg/mL are designated (C)) | (B) (MIC values of 1 - 2 µg/mL are designated (B)) | (B) (MIC values of 1 - 2 µg/mL are designated (B)) | (B) (MIC values of 1 - 2 µg/mL are designated (B)) | (B) (MIC values of 1 - 2 µg/mL are designated (B)) | (B) (MIC values of 1 - 2 µg/mL are designated (B)) | (C) (MIC values of 2 - 128 µg/mL are designated (C)) | – | – | – | –
C[n+]1ccn(CC(=O)Nc2c(F)cc(S(=O)(=O)Nc3scnc3C(=O)[O-])cc2F)n1 [Example 23, 1-[({4-[(4-carboxy-1,3-thiazol-5-yl)sulfamoyl]-2,6-difluorophenyl}carbamoyl)methyl]-3-methyl-1H-1,2,3-triazol-3-ium] | – | – | – | – | – | – | – | – | – | – | – | – | – | – | 1 to 8 | 0.05 to 0.2 | 0.2 to 0.5 | 0.05 to 0.2
CC[n+]1ccn(CC(=O)Nc2ccc(S(=O)(=O)Nc3scnc3C(=O)[O-])cc2F)n1 [Example 24, 1-[({4-[(4-carboxy-1,3-thiazol-5-yl)sulfamoyl]-2-fluorophenyl}carbamoyl)methyl]-3-ethyl-1H-1,2,3-triazol-3-ium] | – | – | – | – | – | – | – | – | – | – | – | – | – | – | 0.5 to 1 | 0.05 to 0.2 | 0.2 to 0.5 | 0.05 to 0.2
C[n+]1cnn(CC(=O)Nc2ccc(S(=O)(=O)Nc3scnc3C(=O)[O-])cc2F)c1 [Example 25, 1-[({4-[(4-carboxy-1,3-thiazol-5-yl)sulfamoyl]-2-fluorophenyl}carbamoyl)methyl]-4-methyl-1H-1,2,4-triazol-4-ium] | – | – | – | – | – | – | – | – | – | – | – | – | – | – | 1 to 8 | 0.05 to 0.2 | 0.2 to 0.5 | 0.05 to 0.2
C[n+]1nnn(CC(=O)Nc2ccc(S(=O)(=O)Nc3scnc3C(=O)[O-])cc2F)c1N [Example 26, 5-amino-1-[({4-[(4-carboxy-1,3-thiazol-5-yl)sulfamoyl]-2-fluorophenyl}carbamoyl)methyl]-4-methyl-1H-1,2,3,4-tetrazol-4-ium] | – | – | – | – | – | – | – | – | – | – | – | – | – | – | 0.5 to 1 | < 0.05 | 0.2 to 0.5 | 0.05 to 0.2
